26 compounds from US11242334B2, “Heterocyclic compounds as kinase inhibitors, compositions comprising the heterocyclic compound, and methods of use thereof” (JS INNOPHARM (SHANGHAI) LTD, priority 2017, dated 2022) can be followed below.

pIC50: −log10 of the molar value. Some results are limits rather than exact numbers.

The term pIC50 denotes the IC50 on a negative log10 scale, so that one unit is a factor of ten. A low value points to a high IC50.

For assay [1], the target named is T1, human ERK2 (Homo sapiens, UniProt P28482).
T1 construct: recombinantly expressed as GST-tagged full-length protein purified from E. coli; GST; purchased Invitrogen PV3311; host or cells: E. coli
Description: LanthaScreen TR-FRET enzymatic assay, ERK2. To be noted: IC50 values of ERK2 biochemical activity; 5 μM ATP, 400 nM ATF2-GFP substrate. Summed up: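 IC50 values were fitted from percent of DMSO control using a 520/495 nm TR-FRET ratio with terbium anti-pATF2 (pThr71), read after an EDTA stop. The kinase reaction lasted one hour at room temperature, following 15-min compound pre-treatment. It contained 5 μM ATP, 400 nM ATF2-GFP substrate and 20 ng/ml in vitro-activated GST-ERK2.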
A general note: TR-FRET usually uses a lanthanide donor and a delayed reading to cut background.

The test system of assay [2] is Colo205 cell line. Description: Colo205 cell proliferation assay (MTT assay, WST-8 readout). Format: cell-based. To be noted: Homo sapiens; IC50 values of growth inhibition in Colo 205 cells; 72 hours. Summed up: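 Growth-inhibition IC50 was derived from WST-8 absorbance at 450 nm (2 h development) after 72 h compound exposure at 37° C. Exposure used final 50 μM–0.005 μM compound in 0.5% DMSO. Colo205 cells had been plated at 5,000/well in RPMI-1640 plus 10% FBS and allowed 24 h to attach.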
On the technique in general: Tetrazolium dyes change colour on reduction, which living cells bring about.

T1 sequence (P28482 whole entry): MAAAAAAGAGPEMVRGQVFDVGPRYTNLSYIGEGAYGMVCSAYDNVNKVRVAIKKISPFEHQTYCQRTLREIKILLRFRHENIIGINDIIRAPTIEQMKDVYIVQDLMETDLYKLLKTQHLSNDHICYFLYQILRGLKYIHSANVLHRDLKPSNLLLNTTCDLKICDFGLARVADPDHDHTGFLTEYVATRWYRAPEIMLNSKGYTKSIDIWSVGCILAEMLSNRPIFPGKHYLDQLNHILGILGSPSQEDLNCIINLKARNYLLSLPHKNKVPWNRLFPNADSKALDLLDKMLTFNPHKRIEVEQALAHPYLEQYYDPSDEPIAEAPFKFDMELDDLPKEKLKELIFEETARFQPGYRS

As to `Cn1cc2cc(-c3n[nH]c4ccc(-c5ccn([C@H](CO)c6cc(F)cc(Br)c6)c(=O)c5)cc34)ccc2n1` [Example 113, (S)-1-(1-(3-bromo-5-fluorophenyl)-2-hydroxyethyl)-4-(2′-methyl-1H,2′H-[3,5′-biindazol]-5-yl)pyridin-2(1H)-one], the pIC50 in assay [1] was more than 8.00; in assay [2] it was not below 6.30.
As for `CCOc1ccc(-c2n[nH]c3ccc(-c4ccn([C@H](CO)c5cc(F)cc(Br)c5)c(=O)c4)cc23)cn1` [Example 102, (S)-1-(1-(3-bromo-5-fluorophenyl)-2-hydroxyethyl)-4-(3-(6-ethoxypyridin-3-yl)-1H-indazol-5-yl)pyridin-2(1H)-one], the negative logarithm of the IC50 (pIC50) in assay [1] was more than 8.00; in assay [2] it was not below 6.30.
As for `Cn1cc(-c2n[nH]c3ccc(-c4ccn(Cc5cccc(I)c5)c(=O)c4)cc23)cn1` [Example 93, 1-(3-iodobenzyl)-4-(3-(1-methyl-1H-pyrazol-4-yl)-1H-indazol-5-yl)pyridin-2(1H)-one], the negative-log IC50 (pIC50) in assay [1] was more than 8.00; in assay [2], not below 6.30.
On the same counts, the results for `Cc1cc(-c2n[nH]c3ccc(-c4ccn(Cc5cc(Br)ccc5F)c(=O)c4)cc23)ccn1` [Example 55, 1-(5-bromo-2-fluorobenzyl)-4-(3-(2-methylpyridin-4-yl)-1H-indazol-5-yl)pyridin-2(1H)-one] are more than 8.00 and not below 6.30.
For `Cc1cc(-c2n[nH]c3ccc(-c4ccn(Cc5cccc(C(F)(F)F)c5F)c(=O)c4)cc23)ccn1` [Example 80, 1-(2-fluoro-3-(trifluoromethyl)benzyl)-4-(3-(2-methylpyridin-4-yl)-1H-indazol-5-yl)pyridin-2(1H)-one], in that order: more than 8.00 and 5.30 to 6.00.
On the same counts, the results for `Cn1cc(-c2n[nH]c3ccc(-c4ccn([C@H](CO)c5cc(F)cc(Br)c5)c(=O)c4)cc23)ccc1=O` [Example 120, (S)-1-(1-(3-bromo-5-fluorophenyl)-2-hydroxyethyl)-4-(3-(1-methyl-6-oxo-1,6-dihydropyridin-3-yl)-1H-indazol-5-yl)pyridin-2(1H)-one] are more than 8.00 and 5.30 to 6.00.
For the compound `Cn1cc(-c2n[nH]c3ccc(-c4ccn(Cc5cc(Br)ccc5F)c(=O)c4)cc23)cn1` [Example 85, 1-(5-bromo-2-fluorobenzyl)-4-(3-(1-methyl-1H-pyrazol-4-yl)-1H-indazol-5-yl)pyridin-2(1H)-one], the results for the negative logarithm of the IC50 (pIC50) in assay [1] and in assay [2] were more than 8.00 and not below 6.30, respectively.
On to `Cc1cc(-c2n[nH]c3ccc(-c4ccn(Cc5cccc(F)c5NS(C)(=O)=O)c(=O)c4)cc23)ccn1` [Example 83, N-(2-fluoro-6-((4-(3-(2-methylpyridin-4-yl)-1H-indazol-5-yl)-2-oxopyridin-1(2H)-yl)methyl)phenyl)methanesulfonamide], for which the results for the negative logarithm of the IC50 (pIC50) in assay [1] and in assay [2] were more than 8.00 and 5.30 to 6.00, respectively.
On the same counts, the results for `COCCn1cc(-c2n[nH]c3ccc(-c4ccn([C@H](CO)c5ccc(F)c(Cl)c5)c(=O)c4)cc23)cn1` [Example 52, (S)-1-(1-(3-chloro-4-fluorophenyl)-2-hydroxyethyl)-4-(3-(1-(2-methoxyethyl)-1H-pyrazol-4-yl)-1H-indazol-5-yl)pyridin-2(1H)-one] are more than 8.00 and 5.30 to 6.00.
For `COc1ccc(-c2n[nH]c3ccc(-c4ccn(Cc5ccnc(C(F)(F)F)c5)c(=O)c4)cc23)cn1` [Example 116, 4-(3-(6-methoxypyridin-3-yl)-1H-indazol-5-yl)-1-((2-(trifluoromethyl)pyridin-4-yl)methyl)pyridin-2(1H)-one], in that order: more than 8.00 and 5.30 to 6.00.
On to `Cn1cc(-c2n[nH]c3ccc(-c4ccn(Cc5cccc(Br)c5)c(=O)c4)cc23)cn1` [Example 90, 1-(3-bromobenzyl)-4-(3-(1-methyl-1H-pyrazol-4-yl)-1H-indazol-5-yl)pyridin-2(1H)-one], for which the negative-log IC50 (pIC50) was more than 8.00 in assay [1] and not below 6.30 in assay [2].
As to `Cn1cc(-c2n[nH]c3ccc(-c4ccn([C@H](CO)c5cccc(Br)c5)c(=O)c4)cc23)cn1` [Example 45, (S)-1-(1-(3-bromophenyl)-2-hydroxyethyl)-4-(3-(1-methyl-1H-pyrazol-4-yl)-1H-indazol-5-yl)pyridin-2(1H)-one], the negative logarithm of the IC50 (pIC50) is more than 8.00 in assay [1] and not below 6.30 in assay [2].
As for `O=c1cc(-c2ccc3[nH]nc(N4CCC(O)C4)c3c2)ccn1[C@H](CO)c1cccc(Cl)c1` (stereo partly drawn) [Example 27, 1-((S)-1-(3-chlorophenyl)-2-hydroxyethyl)-4-(3-(3-hydroxypyrrolidin-1-yl)-1H-indazol-5-yl)pyridin-2(1H)-one], the negative logarithm of the IC50 (pIC50) is more than 8.00 in assay [1] and 5.30 to 6.00 in assay [2].
On to `Cn1cc(-c2n[nH]c3ccc(-c4ccn(Cc5cccc(C(F)(F)F)c5)c(=O)c4)cc23)cn1` [Example 91, 4-(3-(1-methyl-1H-pyrazol-4-yl)-1H-indazol-5-yl)-1-(3-(trifluoromethyl)benzyl)pyridin-2(1H)-one], for which the pIC50 in assay [1] was more than 8.00; in assay [2], 6.00 to 6.30.
Turning to `O=c1cc(-c2ccc3[nH]nc(C4CCOCC4)c3c2)ccn1[C@H](CO)c1cccc(Cl)c1` [Example 2, (S)-1-(1-(3-chlorophenyl)-2-hydroxyethyl)-4-(3-(tetrahydro-2H-pyran-4-yl)-1H-indazol-5-yl)pyridin-2(1H)-one], the pIC50 in assay [1] is more than 8.00; in assay [2], 6.00 to 6.30.
For the compound `Cc1cc(-c2n[nH]c3ccc(-c4ccn(Cc5ccc(F)c(C(F)(F)F)c5)c(=O)c4)cc23)ccn1` [Example 77, 1-(4-fluoro-3-(trifluoromethyl)benzyl)-4-(3-(2-methylpyridin-4-yl)-1H-indazol-5-yl)pyridin-2(1H)-one], the negative-log IC50 (pIC50) in assay [1] was more than 8.00; in assay [2], not below 6.30.
For the compound `Cc1cc(-c2n[nH]c3ccc(-c4ccn(Cc5ccccc5C(F)(F)F)c(=O)c4)cc23)ccn1` [Example 59, 4-(3-(2-methylpyridin-4-yl)-1H-indazol-5-yl)-1-(2-(trifluoromethyl)benzyl)pyridin-2(1H)-one], the pIC50 was more than 8.00 in assay [1] and 5.30 to 6.00 in assay [2].
On the same counts, the results for `Cn1cc(-c2n[nH]c3ccc(-c4ccn([C@H](CO)c5cccc(C(F)(F)F)c5)c(=O)c4)cc23)cn1` [Example 42, (S)-1-(2-hydroxy-1-(3-(trifluoromethyl)phenyl)ethyl)-4-(3-(1-methyl-1H-pyrazol-4-yl)-1H-indazol-5-yl)pyridin-2(1H)-one] are more than 8.00 and 6.00 to 6.30.
As to `COc1cc(-c2n[nH]c3ccc(-c4ccn([C@H](CO)c5cc(F)cc(Br)c5)c(=O)c4)cc23)ccn1` [Example 115, (S)-1-(1-(3-bromo-5-fluorophenyl)-2-hydroxyethyl)-4-(3-(2-methoxypyridin-4-yl)-1H-indazol-5-yl)pyridin-2(1H)-one], the pIC50 in assay [1] is more than 8.00; in assay [2], not below 6.30.
As to `Cc1cc(-c2n[nH]c3ncc(-c4ccn([C@H](CO)c5cccc(Cl)c5)c(=O)c4)cc23)ccn1` [Example 4, (S)-1-(1-(3-chlorophenyl)-2-hydroxyethyl)-4-(3-(2-methylpyridin-4-yl)-1H-pyrazolo[3,4-b]pyridin-5-yl)pyridin-2(1H)-one], the pIC50 in assay [1] is more than 8.00; in assay [2] it was 6.00 to 6.30.
In the case of `Cc1cc(-c2n[nH]c3ccc(-c4ccn([C@H](CO)c5ccc(F)c(Cl)c5)c(=O)c4)cc23)ccn1` [Example 30, (S)-1-(1-(3-chloro-4-fluorophenyl)-2-hydroxyethyl)-4-(3-(2-methylpyridin-4-yl)-1H-indazol-5-yl)pyridin-2(1H)-one], the pIC50 in assay [1] was more than 8.00; in assay [2], not below 6.30.
On the same counts, the results for `Cc1cc(-c2n[nH]c3ccc(-c4ccn([C@@H](CO)c5cccc(Cl)c5)c(=O)c4)cc23)ccn1` [Example 31, (R)-1-(1-(3-chlorophenyl)-2-hydroxyethyl)-4-(3-(2-methylpyridin-4-yl)-1H-indazol-5-yl)pyridin-2(1H)-one] are more than 8.00 and 5.30 to 6.00.
For the compound `Cn1cc(-c2n[nH]c3ncc(-c4ccn([C@H](CO)c5cc(F)cc(Br)c5)c(=O)c4)cc23)cn1` [Example 106, (S)-1-(1-(3-bromo-5-fluorophenyl)-2-hydroxyethyl)-4-(3-(1-methyl-1H-pyrazol-4-yl)-1H-pyrazolo[3,4-b]pyridin-5-yl)pyridin-2(1H)-one], the figures for the pIC50 in assay [1] and in assay [2] were more than 8.00 and 6.00 to 6.30, respectively.
On the same counts, the results for `Cn1cc(-c2n[nH]c3ccc(-c4ccn([C@H](CO)c5cc(F)cc(C(F)(F)F)c5)c(=O)c4)cc23)cn1` [Example 41, (S)-1-(1-(3-fluoro-5-(trifluoromethyl)phenyl)-2-hydroxyethyl)-4-(3-(1-methyl-1H-pyrazol-4-yl)-1H-indazol-5-yl)pyridin-2(1H)-one] are more than 8.00 and not below 6.30.
On the same counts, the results for `Cc1cc(-c2n[nH]c3ccc(-c4ccn(C(C)c5cc(F)cc(Br)c5)c(=O)c4)cc23)ccn1` (stereo not shown) [Example 74, 1-(1-(3-bromo-5-fluorophenyl)ethyl)-4-(3-(2-methylpyridin-4-yl)-1H-indazol-5-yl)pyridin-2(1H)-one] are more than 8.00 and 6.00 to 6.30.
For `CC(C)Oc1ccc(-c2n[nH]c3ccc(-c4ccn([C@H](CO)c5ccc(Cl)c(F)c5)c(=O)c4)cc23)cn1` [Example 100], in that order: 7.30 to 8.00 and 5.30 to 6.00.
